How the values were obtained:
Test in all cases: relative viability (nuclei count vs DMSO), 5 days (fraction); higher = more cells survive
[1] = compound: Cc1ccccc1C(C(=O)NC1CCCCC1)N(C(=O)Cn1ccnc1C)c1cccc(F)c1 [IDH-C35] + CC(C)C[C@H](NC(=O)[C@H](Cc1ccccc1)NC(=O)c1cnccn1)B(O)O [Bortezomib] (partner 0.002 µM)
Summary of the method: (§1)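 Five library-drug doses in √10 steps were combined with a fixed anchor-drug dose, or a single drug was given alone, by pin tool to lung cancer cell lines in 1536-well plates the day after seeding. Nuclei were stained and counted after 5 days. Relative viability is the nuclei count in treated wells over that in vehicle wells, taken as the median of duplicate plates.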

[2] = compound: CC1=C(C(=NN1)C)CC2=C(C3=C(S2)N(C(=O)N(C3=O)C)CC(C)C)C(=O)N4C[C@@H](CO4)O + Cc1cc(Nc2cc(N3CCN(C)CC3)nc(Sc3ccc(NC(=O)C4CC4)cc3)n2)n[nH]1 [Tozasertib] (partner 0.1 µM)
Summary of the method: as §1

[3] = compound: Cc1ccccc1C(C(=O)NC1CCCCC1)N(C(=O)Cn1ccnc1C)c1cccc(F)c1 [IDH-C35] + C[C@@H](Oc1cc(-c2cnn(C3CCNCC3)c2)cnc1N)c1c(Cl)ccc(F)c1Cl [Crizotinib] (partner 1 µM)
Summary of the method: as §1

[4] = compound: CC1=C(C(=NN1)C)CC2=C(C3=C(S2)N(C(=O)N(C3=O)C)CC(C)C)C(=O)N4C[C@@H](CO4)O + COc1cc2c(Oc3ccc(NC(=O)C4(C(=O)Nc5ccc(F)cc5)CC4)cc3F)ccnc2cc1OCCCN1CCOCC1 [Foretinib] (partner 0.25 µM)
Summary of the method: as §1

UMC-11 gave a relative viability ([1]; first compound 0.08 µM) of 0.736, a relative viability ([1]; first compound 0.253 µM) of 0.737 and a relative viability ([1]; first compound 0.8 µM) of 0.487. It also gave a relative viability ([1]; first compound 2.53 µM) of 0.65, a relative viability ([1]; first compound 8 µM) of 0.636 and a relative viability ([2]; first compound 0.0025 µM) of 0.199. For the same cell line, the relative viability ([2]; first compound 0.007906 µM) was 0.172, the relative viability ([2]; first compound 0.025 µM) was 0.196 and the relative viability ([2]; first compound 0.07906 µM) was 0.207. The relative viability ([2]; first compound 0.25 µM) was 0.175, the relative viability ([3]; first compound 0.08 µM) was 0.578 and the relative viability ([3]; first compound 0.253 µM) was 0.56. The relative viability ([3]; first compound 0.8 µM) was 0.481, the relative viability ([3]; first compound 2.53 µM) was 0.576 and the relative viability ([3]; first compound 8 µM) was 0.629. The relative viability ([4]; first compound 0.0025 µM) was 1.16, the relative viability ([4]; first compound 0.007906 µM) was 1.17 and the relative viability ([4]; first compound 0.025 µM) was 0.997. For the same cell line, the relative viability ([4]; first compound 0.07906 µM) was 1.07 and the relative viability ([4]; first compound 0.25 µM) was 1.08.

Reference: the supplement of paper PMC10307832
